Experiments:
Cytomegalovirus [1] = test: Antiviral activity against Human Cytomegalovirus; details: Human betaherpesvirus 5
[2] = target: T1, Tripartite terminase subunit 3 (Human betaherpesvirus 5, UniProt P16732); test: Inhibition of Human Cytomegalovirus C-terminal UL89 […] using (5-tcggtgcgggcctcttcgctattacgccagctggcgaaagggggatgtgctgcaaggcga as a substrate preincubated for 15 mins followed by substrate addition and measured after 30 mins by plate reader endonuclease assay
T1 sequence (P16732 whole entry): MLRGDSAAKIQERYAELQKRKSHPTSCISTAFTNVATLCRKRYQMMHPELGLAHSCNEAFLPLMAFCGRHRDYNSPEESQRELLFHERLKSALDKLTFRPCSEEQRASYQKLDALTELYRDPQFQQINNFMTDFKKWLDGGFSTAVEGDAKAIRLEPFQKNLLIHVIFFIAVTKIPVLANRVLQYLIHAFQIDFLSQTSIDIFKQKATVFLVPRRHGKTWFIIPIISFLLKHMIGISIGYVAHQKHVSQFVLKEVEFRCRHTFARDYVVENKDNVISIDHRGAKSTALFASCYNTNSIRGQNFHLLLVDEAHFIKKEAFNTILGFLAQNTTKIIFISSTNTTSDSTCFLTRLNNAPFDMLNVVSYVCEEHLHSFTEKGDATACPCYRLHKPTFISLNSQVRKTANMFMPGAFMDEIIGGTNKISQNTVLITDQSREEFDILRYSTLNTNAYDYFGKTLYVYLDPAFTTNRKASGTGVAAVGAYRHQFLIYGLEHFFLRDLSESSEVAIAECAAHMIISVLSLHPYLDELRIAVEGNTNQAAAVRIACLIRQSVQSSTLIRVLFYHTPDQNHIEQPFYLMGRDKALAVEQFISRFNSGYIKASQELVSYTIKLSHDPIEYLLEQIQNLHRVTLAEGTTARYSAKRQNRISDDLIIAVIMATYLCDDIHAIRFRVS

Cytomegalovirus [3] = test: Antiviral activity against Human Cytomegalovirus assessed as inhibition of viral growth at 10 uM relative to control; format: functional; details: Human betaherpesvirus 5
[4] = Permeability of the compound at pH 7.4 by PAMPA method; format: ADME; details: for Papp: read-out: permeability
[5] = Cytotoxicity against human HFF-1 cells assessed as induction of cell death incubated for 24 hrs by MTT assay; format: toxicity, cell-based
[6] = target: T1, Tripartite terminase subunit 3; test: Inhibition of human Cytomegalovirus C-terminal UL89
Integrase = Integrase (Human immunodeficiency virus 1, UniProt Q76353, Q148K); test: Inhibition of HIV-1 integrase Q148K mutant
HFF = test: Cytotoxicity against human HFF cells assessed as reduction in cell viability; format: functional
[7] = target: T2, Human immunodeficiency virus type 1 reverse transcriptase (Human immunodeficiency virus 1, UniProt Q72547); test: Inhibition of HIV-1 reverse transcriptase
[8] = tested on: Human immunodeficiency virus 1; test: Antiviral activity against HIV-1 harboring integrase L74M mutant; format: functional, organism-based
[9] = target: T3, Tripartite terminase subunit 3 (Human betaherpesvirus 5) (UniProt P16732); test: Inhibition of Human Cytomegalovirus C-terminal UL89 […] using (5-tcggtgcgggcctcttcgctattacgccagctggcgaaagggggatgtgctgcaaggcga as a substrate preincubated for 15 mins followed by substrate addition at 20 uM and measured after 30 mins by plate reader endonuclease assay relative to control; details: time 45.0 min
T3 sequence (whole entry): T1 sequence (P16732 whole entry)

[10] = target: Hepatitis C virus NS5B RNA-dependent RNA polymerase (Hepatitis C virus, UniProt Q8JXU8); test: Inhibition of Hepatitis C virus NS5B polymerase; design: species or system Hepacivirus hominis
[11] = target: Human immunodeficiency virus type 1 integrase (Human immunodeficiency virus 1, UniProt Q7ZJM1, G140S/Q148K)
[12] = target: Human immunodeficiency virus type 1 integrase (Human immunodeficiency virus 1, UniProt Q7ZJM1, R263K); test: Inhibition of HIV-1 integrase DTG-resistant R263K mutant
[13] = Cytotoxicity against human HFF cells assessed as reduction in cell viability incubated for 72 hrs by MTT assay; format: toxicity, cell-based
[14] = target: T2, Human immunodeficiency virus type 1 reverse transcriptase; test: Inhibition of HIV-1 reverse transcriptase associated RNA-dependent DNA polymerase
[15] = target: T2, Human immunodeficiency virus type 1 reverse transcriptase; test: Inhibition of HIV-1 RNase H polymerase activity
[16] = tested on: Human immunodeficiency virus 1; test: Antiviral activity against HIV-1 assessed as viral growth inhibition; format: functional, organism-based
[17] = Selectivity index, ratio of CC50 for human HFF cells to EC50 for Human cytomegalovirus; format: toxicity; details: read-out: Ratio CC50/EC50

Sequence of Human immunodeficiency virus type 1 integrase (Human immunodeficiency virus 1, UniProt Q7ZJM1, R263K) (Q7ZJM1 entry or part of it R263K): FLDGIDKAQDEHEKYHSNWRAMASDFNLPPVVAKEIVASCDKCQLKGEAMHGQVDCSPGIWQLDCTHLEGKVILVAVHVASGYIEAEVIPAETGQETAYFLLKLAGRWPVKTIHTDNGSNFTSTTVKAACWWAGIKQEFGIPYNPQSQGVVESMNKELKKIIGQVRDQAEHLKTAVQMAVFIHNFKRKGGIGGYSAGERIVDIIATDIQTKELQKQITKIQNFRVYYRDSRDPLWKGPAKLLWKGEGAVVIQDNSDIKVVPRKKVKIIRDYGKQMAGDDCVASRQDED
Sequence of Hepatitis C virus NS5B RNA-dependent RNA polymerase (Q8JXU8 whole entry): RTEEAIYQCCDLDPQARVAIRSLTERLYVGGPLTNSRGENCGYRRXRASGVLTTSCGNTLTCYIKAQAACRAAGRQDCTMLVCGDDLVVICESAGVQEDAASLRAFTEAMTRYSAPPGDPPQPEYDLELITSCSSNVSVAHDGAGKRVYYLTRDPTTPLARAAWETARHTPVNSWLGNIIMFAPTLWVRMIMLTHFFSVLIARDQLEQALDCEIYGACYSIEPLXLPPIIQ
Sequence of Human immunodeficiency virus type 1 integrase (Human immunodeficiency virus 1, UniProt Q7ZJM1, G140S/Q148K) (Q7ZJM1 entry or part of it G140S/Q148K): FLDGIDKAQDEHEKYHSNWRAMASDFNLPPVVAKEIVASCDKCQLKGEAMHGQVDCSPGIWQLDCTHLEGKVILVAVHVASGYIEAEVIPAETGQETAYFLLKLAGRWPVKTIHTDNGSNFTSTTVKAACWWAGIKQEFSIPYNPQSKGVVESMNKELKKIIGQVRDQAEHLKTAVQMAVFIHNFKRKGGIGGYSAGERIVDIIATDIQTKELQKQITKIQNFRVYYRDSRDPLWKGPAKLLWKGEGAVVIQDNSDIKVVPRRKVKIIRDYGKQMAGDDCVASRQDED
Sequence of Integrase (Q76353 entry or part of it Q148K): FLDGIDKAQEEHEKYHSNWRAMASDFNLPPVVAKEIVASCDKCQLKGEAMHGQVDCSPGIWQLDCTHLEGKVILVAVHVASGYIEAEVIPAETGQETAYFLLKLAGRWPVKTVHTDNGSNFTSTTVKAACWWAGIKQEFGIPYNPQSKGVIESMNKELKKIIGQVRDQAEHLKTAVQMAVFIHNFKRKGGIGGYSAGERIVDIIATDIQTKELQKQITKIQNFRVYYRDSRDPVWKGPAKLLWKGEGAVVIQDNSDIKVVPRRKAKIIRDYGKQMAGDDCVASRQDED

Row | SMILES | EC50 (Cytomegalovirus [1]) [nM] | IC50 [2] [nM] | inhibition at 10 µM (Cytomegalovirus [3]) [%] | other results
1 | COc1cccc(OC)c1-c1cccc(Nc2cc(=O)n(O)c(=O)[nH]2)c1 | 15000 | 14000 | – | –
2 | O=c1[nH]c2sc3c(c2c(=O)n1O)CCCC3 | – | 790 | -3 | permeability [4]: 1.1 10^-6 cm/s
3 | O=c1[nH]c2sc3c(c2c(=O)n1O)CCN(Cc1ccccc1)C3 | 15000 | 1100 | 59 | CC50 at 24 h [5]: > 50000 nM; Papp [4]: 0.2 ×10⁻⁶ cm/s
4 | O=C(O)c1cn(-c2ccccc2)cc(O)c1=O | – | > 25000 | 8 | –
5 | O=C(O)c1cn(C2CC2)cc(O)c1=O | – | > 25000 | 2 | –
6 | O=c1[nH]c2sc3c(c2c(=O)n1O)CCC3 | – | 480 | 19 | Papp [4]: 0.4 ×10⁻⁶ cm/s
7 | O=c1[nH]c2cc(-c3ccccc3)ccc2c(=O)n1O | 13000 | 6400 | 91 | Papp [4]: 2 ×10⁻⁶ cm/s
8 | CN(Cc1ccc(F)cc1)C(=O)CC(=O)C(=O)O | – | – | – | IC50 [6]: 50000 nM
9 | Cc1ccc(CNC(=O)c2nc(Cl)c3cccnc3c2O)cc1 | – | 1800 | – | –
10 | O=c1cc(Nc2ccc(-c3cccc(O)c3)cc2)[nH]c(=O)n1O | > 20000 | 2900 | – | –
11 | CC(C)c1cn(COCc2ccccc2)c(=O)[nH]c1=O | – | – | – | IC50 (Integrase): > 333000 nM; CC50 (HFF): > 20000 nM; IC50 [7]: 40 nM; EC50 [8]: 13 nM
12 | O=C(O)c1cn(Cc2ccccc2)cc(O)c1=O | – | > 25000 | 38 | –
13 | COc1cn(Cc2ccc(F)cc2)cc(C(=O)NCc2ccc(F)cc2F)c1=O | > 50000 | – | – | inhibition [9]: 6%
14 | O=C(O)c1cn(Cc2ccc(F)cc2)cc(O)c1=O | 10000 | – | 39 | –
15 | Cc1ccc(CNC(=O)c2nc(-c3ccccc3)c3cccnc3c2O)cc1 | – | 2800 | – | –
16 | O=C(O)c1nc(-c2cccs2)nc(O)c1O | – | – | – | IC50 [10]: 2600 nM
17 | O=C(NCc1ccccc1)c1nc(-c2cccs2)nc(O)c1O | – | – | – | IC50 [11]: 2600 nM
18 | CCn1cc(O)c(=O)c(C(=O)O)c1 | – | > 25000 | 14 | –
19 | CCOC(=O)c1cn(Cc2ccc(F)cc2)cc(O)c1=O | – | – | 40 | –
20 | O=C(NCc1ccc(F)cc1)c1ncc2cccnc2c1O | – | – | – | IC50 [12]: 33 nM
21 | O=C(c1cc(Cc2ccccc2)cc(CN2CCCS2(=O)=O)c1)c1ncc2cccnc2c1O | – | – | – | IC50 [12]: 10 nM
22 | O=c1[nH]c2c3c(sc2c(=O)n1O)CCCC3 | – | 940 | -4.5 | Papp [4]: 1 ×10⁻⁶ cm/s
23 | CCc1ccccc1Sc1cc(=O)n(O)c(=O)n1C | – | – | – | CC50 at 72 h [13]: 20000 nM
24 | O=c1[nH]c2sccc2c(=O)n1O | – | 400 | -0.95 | Papp [4]: 0.1 ×10⁻⁶ cm/s
25 | CC(C)c1cn(COCc2ccccc2)c(=O)n(O)c1=O | – | – | – | IC50 [14]: 5400 nM; CC50 at 72 h [13]: > 20000 nM; IC50 [15]: 2500 nM; EC50 [16]: 8 nM
26 | O=c1cc(Nc2cccc(-c3ccc(Cl)cc3)c2)[nH]c(=O)n1O | > 20000 | > 20000 | – | –

Row | SMILES | EC50 (Cytomegalovirus [1]) [nM] | IC50 [2] [nM] | inhibition at 10 µM (Cytomegalovirus [3]) [%] | other results
27 | O=C(O)c1cn(Cc2ccc(F)c(Cl)c2)cc(O)c1=O | 4000 | 6000 | 53 | CC50 (HFF): > 200000 nM; selectivity ratio [17]: > 116
28 | O=c1cc(Nc2ccc(-c3ccc(O)cc3)cc2)[nH]c(=O)n1O | > 20000 | 1100 | – | –
29 | Cn1c(Nc2ccc(-c3cccc(C#N)c3)cc2)cc(=O)n(O)c1=O | 6200 | 740 | – | –
30 | COc1cccc(-c2ccc(Nc3cc(=O)n(O)c(=O)[nH]3)cc2)c1 | > 20000 | 1200 | – | –
31 | O=C1c2ccccc2C(c2ccccc2F)C(=O)N1O (centres undefined) | 6200 | 1400 | 68 | Papp [4]: 3 ×10⁻⁶ cm/s
32 | NC(=O)c1cn(Cc2ccc(F)cc2)cc(O)c1=O | – | > 50000 | 50 | –
33 | O=c1[nH]c2sc(-c3ccc(Cl)cc3)cc2c(=O)n1O | 7600 | 300 | 33 | Papp [4]: 0.5 ×10⁻⁶ cm/s
34 | COc1ccc(-c2ccc(Nc3cc(=O)n(O)c(=O)n3C)cc2)cc1 | – | > 20000 | – | –
35 | Cn1c(Nc2ccc(-c3ccccc3)cc2)cc(=O)n(O)c1=O | > 20000 | > 20000 | – | –
36 | O=C(O)c1c[nH]cc(O)c1=O | – | 14000 | 13 | –
37 | Cc1ccc(-c2ccc(Nc3cc(=O)n(O)c(=O)n3C)cc2)cc1 | 1200 | 2200 | – | –
38 | O=c1[nH]c2sc3c(c2c(=O)n1O)CCNC3 | – | 680 | 26 | Papp [4]: 0.1 ×10⁻⁶ cm/s
39 | Cn1c(Nc2ccc(-c3ccc(C(F)(F)F)cc3)cc2)cc(=O)n(O)c1=O | – | > 20000 | – | –
40 | COc1ccc(-c2cccc(Nc3cc(=O)n(O)c(=O)[nH]3)c2)cc1 | > 20000 | 14000 | – | –
41 | O=c1cc(Nc2ccc(-c3ccc(Cl)cc3)cc2)[nH]c(=O)n1O | > 20000 | 9300 | – | –
42 | O=C(NCCc1ccc(F)cc1F)c1cn(Cc2ccc(F)cc2)cc(O)c1=O | 400 | – | – | CC50 (HFF): > 50000 nM; selectivity ratio [17]: > 40; inhibition [9]: 10%
43 | O=C(O)C(=O)CC(=O)c1ccc(N2CCCCC2)cc1 | – | – | – | IC50 [6]: 4500 nM
44 | O=C(NCc1ccc(F)cc1F)c1cn(Cc2ccc(F)cc2)ccc1=O | 6600 | – | – | inhibition [9]: 5%
45 | O=c1[nH]c2sc(-c3ccccc3)cc2c(=O)n1O | – | 1600 | 2.7 | Papp [4]: 0.5 ×10⁻⁶ cm/s
46 | O=c1c2cc(Cc3ccccc3)ccc2oc2ccc(O)c(O)c12 | – | – | – | IC50 [12]: 600 nM
47 | O=c1[nH]c2ccsc2c(=O)n1O | – | 100 | -11 | Papp [4]: 0.1 ×10⁻⁶ cm/s
48 | O=C(O)C(=O)CC(=O)c1cccc(Cc2ccccc2)c1 | – | – | – | IC50 [12]: 10 nM
49 | O=c1[nH]c2c3c(sc2c(=O)n1O)CCC3 | 220 | 220 | -32 | Papp [4]: 0.3 ×10⁻⁶ cm/s
50 | CCOC(=O)c1cc(=O)c(O)c(C(=O)O)o1 | – | – | – | IC50 [10]: 2250 nM
51 | O=C(NCc1ccc(F)cc1F)c1cn(Cc2ccc(F)cc2)cc(O)c1=O | 900 | – | – | inhibition [9]: 14%
52 | O=c1[nH]c2cc(-c3ccccc3)sc2c(=O)n1O | 13000 | 600 | 59 | CC50 at 24 h [5]: > 50000 nM; permeability [4]: 1.4 10^-6 cm/s

Reference: ChEMBL document CHEMBL5390229, “Inhibiting HCMV pUL89-C Endonuclease with Metal-Binding Compounds” (J Med Chem, 2023)
